Test results published in ChEMBL document CHEMBL1201862, “PubChem BioAssay data set” (2004).
The source made the active and inactive calls.

Assays:
Aurora kinase A = Aurora kinase A (Homo sapiens, UniProt O14965); format: functional;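 further: value from the Navigating the Kinome kinase panel profiling, panel entry STK6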
[1] = molecular target: Serine/threonine-protein kinase Chk1 (Homo sapiens, UniProt O14757); format: functional;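 further: measured as one member of a kinome-wide kinase profiling panel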
Sequence of Serine/threonine-protein kinase Chk1 (O14757 whole entry): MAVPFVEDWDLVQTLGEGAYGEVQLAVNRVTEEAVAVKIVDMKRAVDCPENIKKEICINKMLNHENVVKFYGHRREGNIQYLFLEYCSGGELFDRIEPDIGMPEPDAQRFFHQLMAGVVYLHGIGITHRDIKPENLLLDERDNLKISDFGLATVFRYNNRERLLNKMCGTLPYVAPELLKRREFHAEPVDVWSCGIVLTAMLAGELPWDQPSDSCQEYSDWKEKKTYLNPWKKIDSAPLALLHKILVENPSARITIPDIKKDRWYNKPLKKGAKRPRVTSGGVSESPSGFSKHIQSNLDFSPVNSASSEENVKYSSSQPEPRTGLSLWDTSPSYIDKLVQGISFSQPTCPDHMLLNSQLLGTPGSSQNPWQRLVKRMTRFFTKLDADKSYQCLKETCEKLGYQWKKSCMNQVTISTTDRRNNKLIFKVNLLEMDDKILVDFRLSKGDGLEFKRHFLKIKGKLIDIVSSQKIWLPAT

Streptococcus = assay: Group A Streptococcus viability loss, dose response, counter-screen for streptokinase expression inhibitor project, luminescence, BacTiterGlo (AID 1915); format: functional, organism-based;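 further: potency for reduction of bacterial viability or growth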
[2] = molecular target: T1, Replicative DNA helicase DnaB (Mycobacterium tuberculosis, UniProt P9WMR3); assay: DnaB intein splicing inhibitors, dose response, biochemical, cell-free fluorescence (AID 449749); format: functional
T1 sequence (P9WMR3 whole entry): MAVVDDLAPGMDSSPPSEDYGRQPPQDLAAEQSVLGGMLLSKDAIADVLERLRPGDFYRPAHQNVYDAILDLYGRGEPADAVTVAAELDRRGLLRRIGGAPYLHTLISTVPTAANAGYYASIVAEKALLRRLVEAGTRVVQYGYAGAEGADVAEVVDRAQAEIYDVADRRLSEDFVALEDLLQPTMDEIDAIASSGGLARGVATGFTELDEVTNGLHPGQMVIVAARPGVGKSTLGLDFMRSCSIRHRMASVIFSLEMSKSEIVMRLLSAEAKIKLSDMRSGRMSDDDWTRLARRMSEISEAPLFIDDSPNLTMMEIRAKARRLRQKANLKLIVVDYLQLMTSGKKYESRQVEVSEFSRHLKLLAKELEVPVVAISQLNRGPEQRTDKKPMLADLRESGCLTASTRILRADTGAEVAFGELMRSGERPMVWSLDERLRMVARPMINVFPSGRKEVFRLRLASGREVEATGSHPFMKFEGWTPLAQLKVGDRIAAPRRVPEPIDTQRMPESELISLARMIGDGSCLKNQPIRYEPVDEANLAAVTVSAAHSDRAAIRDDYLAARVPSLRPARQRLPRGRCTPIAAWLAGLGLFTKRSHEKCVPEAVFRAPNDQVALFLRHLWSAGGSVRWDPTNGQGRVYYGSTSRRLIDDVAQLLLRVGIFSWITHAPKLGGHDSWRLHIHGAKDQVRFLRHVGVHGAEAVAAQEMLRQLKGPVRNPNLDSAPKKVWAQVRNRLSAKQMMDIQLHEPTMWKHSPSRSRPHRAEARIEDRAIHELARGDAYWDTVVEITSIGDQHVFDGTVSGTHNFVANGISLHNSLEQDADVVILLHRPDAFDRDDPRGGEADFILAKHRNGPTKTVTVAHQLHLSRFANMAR

[3] = molecular target: T2, Sphingosine 1-phosphate receptor 4 (Homo sapiens, UniProt O95977); assay: Late stage fluorescence dose response cell-based screening assay for antagonists of the Sphingosine 1-Phosphate Receptor 4 (S1P4). [Related pubchem assays: 1524 (Confirmation screen (S1P4 antagonists).), 1510 (Primary screen (S1P4 antagonists).), 1853 (Summary AID (S1P4 antagonists).), 1692 (Dose response screen (S1P4 antagonists).)]; format: functional
T2 sequence (O95977 whole entry): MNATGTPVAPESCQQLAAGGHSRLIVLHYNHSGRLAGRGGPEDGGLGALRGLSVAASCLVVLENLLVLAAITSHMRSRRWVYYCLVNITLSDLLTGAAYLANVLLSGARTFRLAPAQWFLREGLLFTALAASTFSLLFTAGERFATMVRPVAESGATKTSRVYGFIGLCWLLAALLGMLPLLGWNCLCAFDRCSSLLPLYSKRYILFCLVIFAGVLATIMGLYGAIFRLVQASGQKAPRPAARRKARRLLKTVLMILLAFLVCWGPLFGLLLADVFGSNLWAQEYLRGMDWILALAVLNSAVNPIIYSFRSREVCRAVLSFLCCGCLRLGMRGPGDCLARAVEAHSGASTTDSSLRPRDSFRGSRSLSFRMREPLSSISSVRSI

Streptokinase A = molecular target: T3, Streptokinase A (Streptococcus pyogenes serotype M1, UniProt P10520); assay: S. pyogenes streptokinase expression inhibitors, potency, dose response, plasminogen activation absorbance, OD405 (AID 1914); format: functional, Streptococcus pyogenes M1 GAS;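 further: secreted streptokinase activity via plasminogen activation per viability signal from cell pellet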
T3 sequence (P10520 whole entry): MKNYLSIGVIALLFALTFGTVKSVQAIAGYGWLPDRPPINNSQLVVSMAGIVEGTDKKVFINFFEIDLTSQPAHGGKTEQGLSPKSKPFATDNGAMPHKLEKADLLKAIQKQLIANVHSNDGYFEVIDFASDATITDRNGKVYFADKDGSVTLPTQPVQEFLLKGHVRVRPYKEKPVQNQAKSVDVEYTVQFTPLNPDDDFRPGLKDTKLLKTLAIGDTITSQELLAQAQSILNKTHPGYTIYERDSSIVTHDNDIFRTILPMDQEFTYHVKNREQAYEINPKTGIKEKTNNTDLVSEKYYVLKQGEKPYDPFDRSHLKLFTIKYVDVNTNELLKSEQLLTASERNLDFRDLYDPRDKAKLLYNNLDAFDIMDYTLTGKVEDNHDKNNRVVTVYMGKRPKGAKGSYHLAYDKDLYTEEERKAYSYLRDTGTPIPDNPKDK

[4] = system: Streptococcus sp. 'group A'; assay: growth inhibition of control SK(-) GAS strain, dose response, counter-screen for streptokinase expression inhibitor project, luminescence, kanamycin, BacTiterGlo, confirmation (AID 1900); format: functional, organism-based
[5] = nonselective inhibitors of cellular cAMP signaling, dose response, counter-screen for MC4R biased antagonist project, cell-based, TR-FRET cAMP detection (AID 602305); format: functional;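 further: U2OS cells stimulated with forskolin near its EC80 as the cAMP inducer; potency is for inhibition of forskolin-stimulated cAMP signaling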
[6] = molecular target: T2, Sphingosine 1-phosphate receptor 4; assay: Fluorescence dose response cell-based high throughput screening assay for antagonists of the Sphingosine 1-Phosphate Receptor 4 (S1P4). [Related pubchem assays: 1524 (Confirmation in triplicates.), 1510 (Primary screen.)]; format: functional
[7] = Luminescence Cell-Based Dose Retest to Confirm Inhibitors of Cancer Stem Cells. [Related pubchem assays (depositor defined):AID2717, AID2721]; format: functional; conditions: Homo sapiens
Melanocortin receptor 4 = Melanocortin receptor 4 (Homo sapiens, UniProt P32245); assay: MC4R antagonist potency on cAMP, dose response, cell-based, TR-FRET, biased antagonists (AID 602298); format: functional;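 further: antagonist potency against agonist-stimulated cAMP production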
Sequence of Melanocortin receptor 4 (P32245 whole entry): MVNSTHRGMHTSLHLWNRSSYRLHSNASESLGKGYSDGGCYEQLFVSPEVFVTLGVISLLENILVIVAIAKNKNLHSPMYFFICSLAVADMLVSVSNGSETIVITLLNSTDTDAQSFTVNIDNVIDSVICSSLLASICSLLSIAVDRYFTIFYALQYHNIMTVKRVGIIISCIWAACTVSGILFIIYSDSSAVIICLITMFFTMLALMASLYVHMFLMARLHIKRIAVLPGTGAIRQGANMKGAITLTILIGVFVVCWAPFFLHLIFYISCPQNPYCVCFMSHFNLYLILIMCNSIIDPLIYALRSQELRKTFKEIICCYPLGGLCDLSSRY

Protein RecA = molecular target: T4, Protein RecA (Mycobacterium tuberculosis, UniProt P9WHJ3); assay: Fluorescence Cell-Free Homogeneous Dose Retest to Identify Inhibitors of RecA-Intein Splicing Activity. [Related pubchem assays (depositor defined):AID2097, AID2223, AID489010, AID492950]; format: functional
T4 sequence (P9WHJ3 whole entry): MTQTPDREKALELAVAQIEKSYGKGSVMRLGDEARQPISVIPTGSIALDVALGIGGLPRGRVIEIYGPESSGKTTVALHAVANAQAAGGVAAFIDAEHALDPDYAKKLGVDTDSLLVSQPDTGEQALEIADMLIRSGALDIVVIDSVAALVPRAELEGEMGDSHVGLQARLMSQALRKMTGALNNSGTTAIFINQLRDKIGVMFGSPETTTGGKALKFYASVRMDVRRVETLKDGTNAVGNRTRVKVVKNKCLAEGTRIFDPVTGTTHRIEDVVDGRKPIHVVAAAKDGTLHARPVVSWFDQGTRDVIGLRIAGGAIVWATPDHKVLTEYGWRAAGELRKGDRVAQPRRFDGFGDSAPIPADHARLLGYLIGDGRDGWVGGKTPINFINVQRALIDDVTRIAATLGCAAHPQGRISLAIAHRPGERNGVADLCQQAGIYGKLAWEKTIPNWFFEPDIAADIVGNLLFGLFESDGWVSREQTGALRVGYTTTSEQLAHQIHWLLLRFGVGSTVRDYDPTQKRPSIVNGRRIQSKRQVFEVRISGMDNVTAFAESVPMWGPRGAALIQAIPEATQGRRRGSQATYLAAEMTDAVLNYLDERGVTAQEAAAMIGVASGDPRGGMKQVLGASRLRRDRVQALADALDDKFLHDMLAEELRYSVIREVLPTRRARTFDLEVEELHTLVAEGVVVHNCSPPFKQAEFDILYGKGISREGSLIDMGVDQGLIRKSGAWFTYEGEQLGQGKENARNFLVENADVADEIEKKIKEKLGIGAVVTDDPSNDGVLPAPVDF

[8] = growth suppression of beta-catenin-knockout colon cells, dose response, cell-based, HCT116, human colon tumor (AID 1045); format: functional;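 further: HCT116 colon tumor cells with beta catenin knocked out; cells exposed to compound for 60 hours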
[9] = molecular target: Sphingosine 1-phosphate receptor 1 (Homo sapiens, UniProt P21453); format: functional;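 further: Tango beta-arrestin reporter U2OS cells stimulated with S1P near its EC80; inhibitor potency meaning antagonism of receptor activation by the natural agonist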
Sequence of Sphingosine 1-phosphate receptor 1 (P21453 whole entry): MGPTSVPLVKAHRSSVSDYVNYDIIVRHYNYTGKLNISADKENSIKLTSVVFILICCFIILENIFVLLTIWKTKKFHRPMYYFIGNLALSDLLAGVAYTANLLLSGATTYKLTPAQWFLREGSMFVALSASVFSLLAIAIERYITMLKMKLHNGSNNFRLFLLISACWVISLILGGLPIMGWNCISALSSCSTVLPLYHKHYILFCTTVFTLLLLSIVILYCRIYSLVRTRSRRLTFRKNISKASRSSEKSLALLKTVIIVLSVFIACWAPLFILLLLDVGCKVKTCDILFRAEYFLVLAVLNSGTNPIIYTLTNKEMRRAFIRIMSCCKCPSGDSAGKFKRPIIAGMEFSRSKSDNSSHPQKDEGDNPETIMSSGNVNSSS

[10] = growth suppression of PTEN-null colon cells, dose response, cell-based, HCT116 PTEN knockout (AID 1047); format: functional;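 further: HCT116 colon tumor cells with PTEN knocked out; cells exposed to compound for 60 hours before readout; potency for loss of cell viability measured by luminescence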
[11] = molecular target: Mitogen-activated protein kinase kinase kinase kinase 4 (Homo sapiens, UniProt O95819); format: functional
[12] = molecular target: Glycogen synthase kinase-3 beta (Homo sapiens, UniProt P49841); format: functional;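 further: value comes from a broad kinome profiling panel, with GSK3B as the panel member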
Sequence of Glycogen synthase kinase-3 beta (P49841 whole entry): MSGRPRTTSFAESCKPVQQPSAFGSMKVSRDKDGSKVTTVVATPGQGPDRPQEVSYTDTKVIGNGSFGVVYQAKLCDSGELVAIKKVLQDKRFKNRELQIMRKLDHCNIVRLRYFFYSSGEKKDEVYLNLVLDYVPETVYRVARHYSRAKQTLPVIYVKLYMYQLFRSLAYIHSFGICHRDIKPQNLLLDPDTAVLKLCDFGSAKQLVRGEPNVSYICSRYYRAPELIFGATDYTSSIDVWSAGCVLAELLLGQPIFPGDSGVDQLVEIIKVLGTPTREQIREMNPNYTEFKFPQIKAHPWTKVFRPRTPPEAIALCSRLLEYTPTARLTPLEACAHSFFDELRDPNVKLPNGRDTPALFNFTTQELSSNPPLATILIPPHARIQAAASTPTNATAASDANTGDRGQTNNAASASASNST

[13] = molecular target: MAP kinase-interacting serine/threonine-protein kinase 2 (Homo sapiens, UniProt Q9HBH9); format: functional
Sequence of MAP kinase-interacting serine/threonine-protein kinase 2 (Q9HBH9 whole entry): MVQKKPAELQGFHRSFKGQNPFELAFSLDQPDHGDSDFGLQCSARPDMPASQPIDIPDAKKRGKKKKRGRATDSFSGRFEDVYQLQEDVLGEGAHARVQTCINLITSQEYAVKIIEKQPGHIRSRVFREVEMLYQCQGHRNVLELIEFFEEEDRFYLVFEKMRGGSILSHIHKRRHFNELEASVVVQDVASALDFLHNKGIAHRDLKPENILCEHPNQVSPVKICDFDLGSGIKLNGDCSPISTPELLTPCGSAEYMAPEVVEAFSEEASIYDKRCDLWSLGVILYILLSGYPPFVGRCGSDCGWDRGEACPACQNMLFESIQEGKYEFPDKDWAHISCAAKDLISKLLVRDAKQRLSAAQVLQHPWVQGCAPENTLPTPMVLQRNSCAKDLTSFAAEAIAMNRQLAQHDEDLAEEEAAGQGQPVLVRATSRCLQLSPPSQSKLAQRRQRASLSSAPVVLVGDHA

[14] = molecular target: Serine/threonine-protein kinase pim-1 (Homo sapiens, UniProt P11309); format: functional
Sequence of Serine/threonine-protein kinase pim-1 (P11309 whole entry): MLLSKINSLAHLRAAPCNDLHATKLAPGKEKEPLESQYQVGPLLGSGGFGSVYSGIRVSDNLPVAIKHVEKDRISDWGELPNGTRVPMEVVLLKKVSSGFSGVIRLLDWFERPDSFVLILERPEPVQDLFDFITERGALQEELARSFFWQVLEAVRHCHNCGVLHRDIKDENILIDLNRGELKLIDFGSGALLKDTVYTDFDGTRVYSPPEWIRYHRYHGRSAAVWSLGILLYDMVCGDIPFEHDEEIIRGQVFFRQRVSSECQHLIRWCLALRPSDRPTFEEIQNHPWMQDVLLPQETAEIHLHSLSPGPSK

[15] = molecular target: Homeodomain-interacting protein kinase 2 (Homo sapiens, UniProt Q9H2X6); format: functional;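 further: measured within a kinome-wide kinase profiling panel, HIPK2 being one panel member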
[16] = molecular target: cAMP-dependent protein kinase catalytic subunit alpha (Homo sapiens, UniProt P17612); format: functional
[17] = molecular target: Dual specificity protein kinase CLK4 (Homo sapiens, UniProt Q9HAZ1); format: functional
Sequence of Dual specificity protein kinase CLK4 (Q9HAZ1 whole entry): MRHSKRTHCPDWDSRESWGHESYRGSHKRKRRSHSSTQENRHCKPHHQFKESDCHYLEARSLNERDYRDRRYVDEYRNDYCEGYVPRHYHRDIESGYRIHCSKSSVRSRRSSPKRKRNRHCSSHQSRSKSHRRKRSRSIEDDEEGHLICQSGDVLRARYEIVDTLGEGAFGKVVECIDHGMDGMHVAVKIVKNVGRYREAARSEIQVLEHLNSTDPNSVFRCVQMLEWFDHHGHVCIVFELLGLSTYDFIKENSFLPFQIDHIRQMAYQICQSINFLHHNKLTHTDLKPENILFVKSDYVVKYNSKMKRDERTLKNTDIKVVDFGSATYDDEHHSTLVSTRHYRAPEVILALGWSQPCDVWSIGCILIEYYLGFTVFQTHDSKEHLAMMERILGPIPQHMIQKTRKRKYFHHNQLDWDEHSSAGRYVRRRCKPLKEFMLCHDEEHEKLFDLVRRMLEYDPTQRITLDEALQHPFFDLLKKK

[18] = molecular target: Interleukin-1 receptor-associated kinase 4 (Homo sapiens, UniProt Q9NWZ3); format: functional
Sequence of Interleukin-1 receptor-associated kinase 4 (Q9NWZ3 whole entry): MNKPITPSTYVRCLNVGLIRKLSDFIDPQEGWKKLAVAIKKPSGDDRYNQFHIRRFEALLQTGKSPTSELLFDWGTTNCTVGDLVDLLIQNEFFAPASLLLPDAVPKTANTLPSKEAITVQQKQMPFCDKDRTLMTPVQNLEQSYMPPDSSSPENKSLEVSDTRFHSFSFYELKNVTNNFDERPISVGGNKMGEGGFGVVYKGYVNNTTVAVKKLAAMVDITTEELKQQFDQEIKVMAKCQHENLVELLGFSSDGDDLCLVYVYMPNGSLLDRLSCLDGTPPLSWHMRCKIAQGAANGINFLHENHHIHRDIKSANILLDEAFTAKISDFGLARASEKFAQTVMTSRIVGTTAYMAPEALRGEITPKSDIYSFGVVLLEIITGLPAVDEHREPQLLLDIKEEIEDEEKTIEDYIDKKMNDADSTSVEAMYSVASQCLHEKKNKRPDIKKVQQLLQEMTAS

[19] = molecular target: Cell division cycle 7-related protein kinase (Homo sapiens, UniProt O00311); format: functional;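 further: value obtained from a kinome-wide kinase panel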
Sequence of Cell division cycle 7-related protein kinase (O00311 whole entry): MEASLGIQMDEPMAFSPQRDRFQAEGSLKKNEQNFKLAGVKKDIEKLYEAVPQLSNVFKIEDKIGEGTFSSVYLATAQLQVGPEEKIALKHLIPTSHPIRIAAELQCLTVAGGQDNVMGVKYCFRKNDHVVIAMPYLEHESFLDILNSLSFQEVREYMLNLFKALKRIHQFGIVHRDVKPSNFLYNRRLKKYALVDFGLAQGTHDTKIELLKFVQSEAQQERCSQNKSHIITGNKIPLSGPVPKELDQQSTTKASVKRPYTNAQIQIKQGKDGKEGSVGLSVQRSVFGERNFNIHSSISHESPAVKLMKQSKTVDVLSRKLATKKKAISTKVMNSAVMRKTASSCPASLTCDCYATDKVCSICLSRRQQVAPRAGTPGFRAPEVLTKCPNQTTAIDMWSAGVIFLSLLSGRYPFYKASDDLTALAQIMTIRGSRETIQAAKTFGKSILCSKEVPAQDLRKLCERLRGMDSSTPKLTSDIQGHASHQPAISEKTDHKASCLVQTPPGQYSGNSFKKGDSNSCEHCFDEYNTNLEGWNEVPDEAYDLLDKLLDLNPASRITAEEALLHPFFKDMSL

[20] = molecular target: T5, High affinity choline transporter 1 (Homo sapiens, UniProt Q9GZV3); assay: CHT inhibitors, dose response, cell-based, 5-point CRC, membrane potential dye (AID 504840); format: functional
T5 sequence (Q9GZV3 whole entry): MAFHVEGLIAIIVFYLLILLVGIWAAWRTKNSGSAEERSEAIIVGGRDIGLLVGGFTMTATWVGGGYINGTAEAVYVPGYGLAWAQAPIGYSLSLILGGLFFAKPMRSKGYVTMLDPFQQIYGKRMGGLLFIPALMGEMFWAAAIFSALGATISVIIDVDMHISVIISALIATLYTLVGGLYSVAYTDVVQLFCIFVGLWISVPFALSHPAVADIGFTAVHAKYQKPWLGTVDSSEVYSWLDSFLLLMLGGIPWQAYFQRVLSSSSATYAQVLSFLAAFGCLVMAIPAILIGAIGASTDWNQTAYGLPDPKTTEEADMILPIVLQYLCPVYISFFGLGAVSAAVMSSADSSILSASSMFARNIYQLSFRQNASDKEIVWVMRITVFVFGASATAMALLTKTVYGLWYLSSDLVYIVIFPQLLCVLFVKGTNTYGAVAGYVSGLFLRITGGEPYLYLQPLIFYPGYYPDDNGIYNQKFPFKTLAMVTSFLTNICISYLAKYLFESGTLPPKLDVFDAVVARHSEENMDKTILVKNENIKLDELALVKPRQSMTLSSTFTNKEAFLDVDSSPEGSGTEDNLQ

[21] = molecular target: T5, High affinity choline transporter 1; assay: CHT inhibitors, dose response, cell-based, 10-point CRC, membrane potential dye (AID 588401); format: functional;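 further: membrane potential dye fluorescence of choline-evoked depolarization via CHT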

Sequence of Aurora kinase A (O14965 whole entry): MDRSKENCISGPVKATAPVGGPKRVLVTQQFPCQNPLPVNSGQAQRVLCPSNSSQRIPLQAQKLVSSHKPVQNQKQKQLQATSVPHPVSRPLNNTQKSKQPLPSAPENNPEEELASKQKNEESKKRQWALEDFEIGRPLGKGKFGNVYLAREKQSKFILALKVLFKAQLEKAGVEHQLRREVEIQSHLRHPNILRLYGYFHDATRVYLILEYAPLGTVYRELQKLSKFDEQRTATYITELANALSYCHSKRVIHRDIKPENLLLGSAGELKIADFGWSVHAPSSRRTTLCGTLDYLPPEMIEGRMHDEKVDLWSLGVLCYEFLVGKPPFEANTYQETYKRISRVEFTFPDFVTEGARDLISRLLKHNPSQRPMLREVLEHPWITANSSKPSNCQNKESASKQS

SMILES: CN(C)c1ncnc2[nH]ncc12
- Ki (Aurora kinase A): 12.6 µM (active)
- Ki [1]: 5.01 µM (active)

SMILES: O=[N+]([O-])c1cc(S(=O)(=O)C(F)(F)F)ccc1Sc1nc2ccccc2[nH]1
- EC50 (Streptococcus): 11.9 µM (active)
- AC50 [2]: 2.83 µM (active)
- IC50 [3]: 0.77 µM (active)
- EC50 (Streptokinase A): > 150 µM (not active)
- EC50 [4]: 5.93 µM (active)
- IC50 [5]: > 64.6 µM (inactive)
- IC50 [6]: 1.29 µM (active)
- AC50 [7]: 4.04 µM (active)
- IC50 (Melanocortin receptor 4): 7.65 µM (active)
- EC50 (Protein RecA): 0.774 µM (active)
- EC50 [8]: 6.72 µM (active)
- IC50 [9]: 34.3 µM (not active)
- EC50 [10]: 7.22 µM (active)

SMILES: Nc1n[nH]c2ccc(-c3nnn(Cc4ccccc4)c3C3CC3)cc12
- Ki [11]: 1 µM (active)
- Ki [12]: 0.00794 µM (active)
- Ki [13]: 0.398 µM (active)
- Ki [14]: 3.98 µM (active)
- Ki [15]: 2 µM (active)
- Ki [16]: 0.631 µM (active)
- Ki [17]: 0.0251 µM (active)
- Ki [18]: > 10 µM (inactive)
- Ki [19]: 0.0316 µM (active)

SMILES: Clc1cc(I)cc(Cl)c1N=C1NCCN1
- IC50 [20]: 1.12 µM (active)
- IC50 [21]: 0.843 µM (active)
